From patent US20230265151A1, “GIP/GLP1 CO-AGONIST COMPOUNDS” (priority 2020, published 2023)
Read-outs that look alike come from different tables or passages of the source. *1 amine or outer side, *2 acyl side, *3 side chain or, on linkers, in order; H or OH if unused. Where a SMILES comes first, the peptide text is derived from it. Side-chain parts run from the residue outwards. [ ]: non-standard residue; d: D form. The star is where a group is joined. Decanoyl(10-(4-HOOC-PhO)) = O=C(O)c1ccc(OCCCCCCCCCC(=O)*)cc1; αMePhe(2-F) = C[C@](N)(Cc1ccccc1F)C(=O)O; γGlu = O=C(O)[C@H](CCC(=O)[*:2])N[*:1]; αMeY = C[C@](N)(Cc1ccc(O)cc1)C(=O)O; αMeL = CC(C)C[C@](C)(N)C(=O)O; Orn = NCCC[C@H](N)C(=O)O; AEEA = NCCOCCOCC(=O)O; Aib = CC(C)(N)C(=O)O

Legend:
Assay type in all cases: cell-based
[1] = biological target: T1, hGIPR (Homo sapiens, UniProt P48546); experiment: Functional cAMP formation (HTRF) in HEK-293 clonal cells expressing hGIPR, 0.1% bovine casein, without or with 1.0% human serum albumin; conditions: for Emax: percent of maximal response to GIP(1-42)NH2; for EC50: cAMP
T1 construct: expressed in transfected cells
T1 sequence (P48546 22-466): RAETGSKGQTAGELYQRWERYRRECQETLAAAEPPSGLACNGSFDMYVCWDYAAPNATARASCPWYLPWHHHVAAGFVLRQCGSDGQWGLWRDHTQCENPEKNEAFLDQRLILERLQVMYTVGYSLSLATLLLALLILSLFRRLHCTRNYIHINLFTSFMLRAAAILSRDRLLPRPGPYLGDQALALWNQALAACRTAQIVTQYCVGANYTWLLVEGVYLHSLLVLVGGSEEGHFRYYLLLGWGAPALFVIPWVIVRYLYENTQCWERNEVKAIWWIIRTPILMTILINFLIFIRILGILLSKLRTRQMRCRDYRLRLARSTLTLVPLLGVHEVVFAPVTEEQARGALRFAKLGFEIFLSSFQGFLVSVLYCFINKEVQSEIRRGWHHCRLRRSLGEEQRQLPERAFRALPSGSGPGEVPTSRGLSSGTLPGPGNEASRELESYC
Summary of the method: (§1)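 Cells were stimulated with peptide for 30 min at 37° C, then lysed in buffer carrying cAMP-d2 and anti-cAMP Eu3+-cryptate for a competitive HTRF read after at least 60 min at room temperature. The 665/620 nm ratio was converted to nM cAMP against a standard curve.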

[2] = biological target: T2, hGCGR (Homo sapiens, UniProt P47871); experiment: Functional cAMP formation (HTRF) in HEK-293 clonal cells expressing hGCGR, 0.1% bovine casein, without or with 1.0% human serum albumin; conditions: cAMP, 37° C.
T2 construct: expressed in transfected cells
Summary of the method: as §1

[3] = biological target: hGLP-1R (Homo sapiens, UniProt P43220); experiment: Functional cAMP formation (HTRF) in HEK-293 clonal cells expressing hGLP-1R, 0.1% bovine casein, without or with 1.0% human serum albumin; set-up: expressed in transfected cells; conditions: for Emax: percent of maximal response to GLP-1(7-36)NH2; for EC50: cAMP
Summary of the method: as §1

[4] = HEK293, read-out: hGIPR Emax, % ± SEM, cAMP, 37° C., 0.1% bovine casein and 1.0% human serum albumin
[5] = HEK293, read-out: hGIPR Emax, % ± SEM, cAMP, 37° C., 0.1% bovine casein, arithmetic mean
[6] = hGIPR EC50, nM (SEM, n), 37° C., 0.1% bovine casein (no human serum albumin), geometric mean
[7] = hGIPR EC50, nM (SEM, n), 37° C., 0.1% bovine casein and 1.0% human serum albumin, geometric mean (SEM, n)
[8] = hGCGR EC50, nM (SEM, n), 0.1% bovine casein (no human serum albumin), geometric mean
[9] = hGCGR EC50, nM (SEM, n), 0.1% bovine casein and 1.0% human serum albumin, geometric mean (SEM, n)
[10] = HEK293, read-out: hGLP-1R Emax, % ± SEM, cAMP, 37° C., 0.1% bovine casein and 1.0% human serum albumin
[11] = hGLP-1R EC50, nM (SEM, n), 37° C., 0.1% bovine casein (no human serum albumin), geometric mean
[12] = hGLP-1R EC50, nM (SEM, n), 37° C., 0.1% bovine casein and 1.0% human serum albumin, geometric mean (SEM, n)
[13] = HEK293, read-out: hGLP-1R Emax, % ± SEM, cAMP, 37° C., 0.1% bovine casein, arithmetic mean

hGLP-1R, sequence (P43220 24-463): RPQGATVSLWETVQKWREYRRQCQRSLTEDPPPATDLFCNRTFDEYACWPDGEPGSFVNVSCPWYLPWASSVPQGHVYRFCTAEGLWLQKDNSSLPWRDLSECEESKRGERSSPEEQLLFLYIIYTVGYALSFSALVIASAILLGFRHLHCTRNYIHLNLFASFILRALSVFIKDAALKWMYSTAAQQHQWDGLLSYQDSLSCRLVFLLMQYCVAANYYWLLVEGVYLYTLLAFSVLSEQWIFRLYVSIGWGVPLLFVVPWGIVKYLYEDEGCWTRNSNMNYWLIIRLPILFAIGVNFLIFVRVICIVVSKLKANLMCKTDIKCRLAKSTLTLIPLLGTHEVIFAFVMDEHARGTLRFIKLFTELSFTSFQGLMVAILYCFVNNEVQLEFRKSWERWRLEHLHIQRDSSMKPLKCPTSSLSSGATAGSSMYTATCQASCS
T2 sequence (P47871 26-477): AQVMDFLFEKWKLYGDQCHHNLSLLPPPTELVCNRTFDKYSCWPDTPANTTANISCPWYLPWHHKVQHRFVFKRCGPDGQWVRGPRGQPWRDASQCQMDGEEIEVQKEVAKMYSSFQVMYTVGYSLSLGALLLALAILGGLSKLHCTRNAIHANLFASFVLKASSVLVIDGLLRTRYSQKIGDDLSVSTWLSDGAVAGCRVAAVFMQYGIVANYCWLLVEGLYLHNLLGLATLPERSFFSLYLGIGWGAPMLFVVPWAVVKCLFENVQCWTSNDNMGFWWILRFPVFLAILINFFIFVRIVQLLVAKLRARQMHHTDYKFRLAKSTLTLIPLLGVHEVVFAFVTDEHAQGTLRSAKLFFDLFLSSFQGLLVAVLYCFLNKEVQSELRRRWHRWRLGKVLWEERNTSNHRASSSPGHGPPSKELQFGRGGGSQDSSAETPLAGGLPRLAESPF

Row | SMILES | Emax [1, 4] [%] | Emax [1, 5] [%] | EC50 [1, 6] [nM] | EC50 [1, 7] [nM] | EC50 [2, 8] [nM] | EC50 [2, 9] [nM] | Emax [3, 10] [%] | EC50 [3, 11] [nM] | EC50 [3, 12] [nM] | Emax [3, 13] [%] | Emax ([1]; HEK293, cAMP, 37° C., 0.1% bovine casein and 1.0% human serum albumin, read-out: hGIPR Emax, % ± SEM) [%] | Emax ([1]; HEK293, cAMP, 37° C., 0.1% bovine casein, arithmetic mean, read-out: hGIPR Emax, % ± SEM) [%] | EC50 ([1]; 37° C., 0.1% bovine casein (no human serum albumin), geometric mean, read-out: hGIPR EC50, nM (SEM, n)) [nM] | EC50 ([1]; 37° C., 0.1% bovine casein and 1.0% human serum albumin, geometric mean (SEM, n), read-out: hGIPR EC50, nM (SEM, n)) [nM] | EC50 ([2]; 0.1% bovine casein (no human serum albumin), geometric mean, read-out: hGCGR EC50, nM (SEM, n)) [nM] | EC50 ([2]; 0.1% bovine casein and 1.0% human serum albumin, geometric mean (SEM, n), read-out: hGCGR EC50, nM (SEM, n)) [nM] | Emax ([3]; HEK293, cAMP, 37° C., 0.1% bovine casein and 1.0% human serum albumin, read-out: hGLP-1R Emax, % ± SEM) [%] | EC50 ([3]; 37° C., 0.1% bovine casein (no human serum albumin), geometric mean, read-out: hGLP-1R EC50, nM (SEM, n)) [nM]
1 | CC[C@H](C)[C@H](NC(=O)[C@H](CC(C)C)NC(=O)[C@](C)(Cc1ccc(O)cc1)NC(=O)[C@H](CCCCNC(=O)COCCOCCNC(=O)COCCOCCNC(=O)CC[C@H](NC(=O)CCCCCCCCCOc1ccc(C(=O)O)cc1)C(=O)O)NC(=O)[C@@H](NC(=O)[C@H](Cc1ccccc1)NC(=O)[C@H](CCC(=O)O)NC(=O)C(C)(C)NC(=O)[C@H](CCC(N)=O)NC(=O)[C@H](C)NC(=O)[C@H](CCC(N)=O)NC(=O)[C@H](CCCN)NC(=O)[C@H](CC(=O)O)NC(=O)[C@H](CC(C)C)NC(=O)[C@](C)(CC(C)C)NC(=O)[C@@H](NC(=O)C(C)(C)NC(=O)[C@H](Cc1ccc(O)cc1)NC(=O)[C@H](CC(=O)O)NC(=O)[C@H](CO)NC(=O)[C@@H](NC(=O)[C@](C)(Cc1ccccc1F)NC(=O)[C@@H](NC(=O)CNC(=O)[C@H](CCC(=O)O)NC(=O)C(C)(C)NC(=O)[C@@H](N)Cc1ccc(O)cc1)[C@@H](C)O)[C@@H](C)O)[C@@H](C)CC)[C@@H](C)CC)C(=O)N[C@@H](CCCCNC(=O)COCCOCCNC(=O)COCCOCCNC(=O)CC[C@H](NC(=O)CCCCCCCCCOc1ccc(C(=O)O)cc1)C(=O)O)C(=O)NCC(=O)NCC(=O)N1CCC[C@H]1C(=O)N[C@@H](CO)C(=O)N[C@@H](CO)C(=O)NCC(=O)N[C@@H](C)C(=O)N1CCC[C@H]1C(=O)N1CCC[C@H]1C(=O)N1CCC[C@H]1C(=O)N[C@@H](CO)C(N)=O [Example 402] | 84.5 | 98.9 | 0.0132 | 1.11 | > 9950 | > 9950 | 110 | 0.221 | 13.5 | – | – | – | – | – | – | – | – | –
2 | CC[C@H](C)[C@H](NC(=O)[C@H](CC(C)C)NC(=O)[C@](C)(Cc1ccc(O)cc1)NC(=O)[C@@H](CCC(=O)O)NC(=O)[C@@H](NC(=O)[C@H](Cc1ccccc1)NC(=O)[C@H](CCCCNC(=O)COCCOCCNC(=O)COCCOCCNC(=O)CC[C@H](NC(=O)CCCCCCCCCOc1ccc(C(=O)O)cc1)C(=O)O)NC(=O)C(C)(C)NC(=O)[C@H](CCC(N)=O)NC(=O)[C@H](C)NC(=O)[C@H](CCCCNC(=O)COCCOCCNC(=O)COCCOCCNC(=O)CC[C@H](NC(=O)CCCCCCCCCOc1ccc(C(=O)O)cc1)C(=O)O)NC(=O)[C@H](CCCN)NC(=O)[C@H](CC(=O)O)NC(=O)[C@H](CC(C)C)NC(=O)[C@](C)(CC(C)C)NC(=O)[C@@H](NC(=O)C(C)(C)NC(=O)[C@@H](NC(=O)[C@H](CC(=O)O)NC(=O)[C@H](CO)NC(=O)[C@@H](NC(=O)[C@](C)(Cc1ccccc1F)NC(=O)[C@@H](NC(=O)CNC(=O)[C@H](CCC(=O)O)NC(=O)C(C)(C)NC(=O)[C@@H](N)Cc1ccc(O)cc1)[C@@H](C)O)[C@@H](C)O)C(C)C)[C@@H](C)CC)[C@@H](C)CC)C(=O)N[C@@H](CCCN)C(=O)NCC(=O)NCC(=O)N1CCC[C@H]1C(=O)N[C@@H](CO)C(=O)N[C@@H](CO)C(=O)NCC(=O)N[C@@H](C)C(=O)N1CCC[C@H]1C(=O)N1CCC[C@H]1C(=O)N1CCC[C@H]1C(=O)N[C@@H](CO)C(N)=O [Example 410] (H-Y[Aib]EGT[αMePhe(2-F)]TSDV[Aib]I[αMeL]LD[Orn]K([AEEA-AEEA-γGlu-Decanoyl(10-(4-HOOC-PhO))])AQ[Aib]K([AEEA-AEEA-γGlu-Decanoyl(10-(4-HOOC-PhO))])FI[dE][αMeY]LI[Orn]GGPSSGAPPPS-NH2) | 86.4 | – | 0.0118 | 1.28 | > 9950 | > 9950 | 93.1 | 0.251 | 11 | 94 | – | – | – | – | – | – | – | –
3 | CC[C@H](C)[C@H](NC(=O)[C@H](CC(C)C)NC(=O)[C@](C)(Cc1ccc(O)cc1)NC(=O)[C@@H](CCC(=O)O)NC(=O)[C@@H](NC(=O)[C@H](Cc1ccccc1)NC(=O)[C@H](CCC(=O)O)NC(=O)C(C)(C)NC(=O)[C@H](CCC(N)=O)NC(=O)[C@H](C)NC(=O)[C@H](CCCCNC(=O)COCCOCCNC(=O)COCCOCCNC(=O)CCCCCCCCCOc1ccc(C(=O)O)cc1)NC(=O)[C@H](CCCN)NC(=O)[C@H](CC(=O)O)NC(=O)[C@H](CC(C)C)NC(=O)[C@](C)(CC(C)C)NC(=O)[C@@H](NC(=O)C(C)(C)NC(=O)[C@H](Cc1ccncc1)NC(=O)[C@H](CC(=O)O)NC(=O)[C@H](CO)NC(=O)[C@@H](NC(=O)[C@](C)(Cc1ccccc1F)NC(=O)[C@@H](NC(=O)CNC(=O)[C@H](CCC(=O)O)NC(=O)C(C)(C)NC(=O)[C@@H](N)Cc1ccc(O)cc1)[C@@H](C)O)[C@@H](C)O)[C@@H](C)CC)[C@@H](C)CC)C(=O)N[C@@H](CCCCNC(=O)COCCOCCNC(=O)COCCOCCNC(=O)CCCCCCCCCOc1ccc(C(=O)O)cc1)C(=O)NCC(=O)NCC(=O)N1CCC[C@H]1C(=O)N[C@@H](CO)C(=O)N[C@@H](CO)C(=O)NCC(=O)N[C@@H](C)C(=O)N1CCC[C@H]1C(=O)N1CCC[C@H]1C(=O)N1CCC[C@H]1C(=O)N[C@@H](CO)C(N)=O [Example 395] | 57.8 | 93.1 | 0.0127 | – | > 9950 | > 9950 | 96.1 | 0.377 | 6.26 | 90.8 | – | – | – | – | – | – | – | –
4 | CC[C@H](C)[C@H](NC(=O)[C@H](CCCN)NC(=O)[C@H](CC(=O)O)NC(=O)[C@H](CC(C)C)NC(=O)[C@](C)(CC(C)C)NC(=O)[C@@H](NC(=O)C(C)(C)NC(=O)[C@H](Cc1ccc(O)cc1)NC(=O)[C@H](CC(=O)O)NC(=O)[C@H](CO)NC(=O)[C@@H](NC(=O)[C@](C)(Cc1ccccc1F)NC(=O)[C@@H](NC(=O)CNC(=O)[C@H](CCC(=O)O)NC(=O)C(C)(C)NC(=O)[C@@H](N)Cc1ccc(O)cc1)[C@@H](C)O)[C@@H](C)O)[C@@H](C)CC)C(=O)N[C@@H](C)C(=O)N[C@@H](CCC(N)=O)C(=O)NC(C)(C)C(=O)N[C@@H](CCC(=O)O)C(=O)N[C@@H](Cc1ccccc1)C(=O)N[C@H](C(=O)N[C@@H](CCCCNC(=O)COCCOCCNC(=O)COCCOCCNC(=O)CC[C@H](NC(=O)COCCOCCNC(=O)CCCCCCCCCCCCC(=O)O)C(=O)O)C(=O)N[C@@](C)(Cc1ccc(O)cc1)C(=O)N[C@@H](CC(C)C)C(=O)N[C@H](C(=O)N[C@@H](CCCCNC(=O)COCCOCCNC(=O)COCCOCCNC(=O)CC[C@H](NC(=O)COCCOCCNC(=O)CCCCCCCCCCCCC(=O)O)C(=O)O)C(=O)NCC(=O)NCC(=O)N1CCC[C@H]1C(=O)N[C@@H](CO)C(=O)N[C@@H](CO)C(=O)NCC(=O)N[C@@H](C)C(=O)N1CCC[C@H]1C(=O)N1CCC[C@H]1C(=O)N1CCC[C@H]1C(=O)N[C@@H](CO)C(N)=O)[C@@H](C)CC)[C@@H](C)CC [Example 363] | – | – | – | – | – | – | – | – | – | – | 91.1 | 111 | 0.0183 | 0.976 | > 9950 | > 9950 | 111 | 0.34
